Data from patent publication US20220169654A1, “New Organic Compounds” (Servier Pharmaceuticals LLC, priority 2020, published 2022).

Legend:
[1] = tested on: HCT116 MTAP−/−; assay: Inhibition of cellular proliferation, 4 days, Cell Titer Glo, HCT116 MTAP−/−; format: cell-based; settings: Homo sapiens, HCT-116, 96 h, IC50 bin with Max Inh., read-out: 4 Day Relative Growth Inhibition (MTAP −/−)
Summary of the method: (§1)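 Isogenic HCT116 pair differing only in MTAP status, plated 24 h before treatment with 10-point 3-fold dilutions; 4 days at 37° C./5% CO2. Cell Titer Glo luminescence, blank-subtracted and normalised to 0.2% DMSO control, gives percentage proliferation vs log molar concentration for IC50.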

[2] = tested on: SAM in HCT116 human colon carcinoma cell line with MTAP gene deleted (MTAP −/−); assay: Cellular assay of target engagement (SAM), LC-MS/MS, 72 hrs; format: cell-based; settings: HCT-116, IC50 bin with Max Inh., read-out: Cell 72 h SAM Inhibition (MTAP −/−)
Summary of the method: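 MTAP-deleted HCT116 cells plated 24 h, then given 10-point 3-fold dilutions for 72 hrs at 37° C. Intracellular SAM extracted in cold 80% methanol with 1M acetic acid and d3-SAM standard, quantified by LC-MS/MS (MRM m/z 399.2→250.1); IC50 derived.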

[3] = tested on: HCT116 MTAP+/+; assay: Inhibition of cellular proliferation, 4 days, Cell Titer Glo, HCT116 MTAP+/+; format: cell-based; settings: Homo sapiens, HCT-116, 96 h, IC50 bin with Max Inh., read-out: 4 Day Relative Growth Inhibition (MTAP +/+)
Summary of the method: as §1

[4] = biological target: T1, MAT2A homodimer (Homo sapiens, UniProt P31153); assay: MAT2A inhibition (biochemical, liberated phosphate, PiColorLock Gold); settings: recombinant MAT2A homodimer; IC50 bin with Max Inh.; read-out: Enzyme Inhibition Bin
T1 construct: inferred from Ni sepharose purification with imidazole elution; made in house; host or cells: Sf9 insect cells, baculovirus (Bac to Bac, pFASTBAC1)
T1 sequence (P31153 whole entry): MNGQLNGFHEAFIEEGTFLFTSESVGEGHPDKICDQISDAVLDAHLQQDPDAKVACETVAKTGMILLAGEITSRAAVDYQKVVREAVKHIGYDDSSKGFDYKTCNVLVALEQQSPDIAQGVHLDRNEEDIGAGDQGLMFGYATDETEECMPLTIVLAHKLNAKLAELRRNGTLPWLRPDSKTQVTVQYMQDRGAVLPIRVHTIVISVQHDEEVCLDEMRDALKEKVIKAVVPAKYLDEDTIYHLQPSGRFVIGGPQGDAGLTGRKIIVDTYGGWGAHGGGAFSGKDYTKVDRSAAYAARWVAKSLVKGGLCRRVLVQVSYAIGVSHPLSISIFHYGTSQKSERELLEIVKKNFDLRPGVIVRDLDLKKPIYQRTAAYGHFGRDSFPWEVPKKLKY
Summary of the method: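 Baculovirus/Sf9-expressed, Ni-purified MAT2A (4 μg/mL) preincubated with compound 60 min at 25 °C in Tris pH 8.0/KCl/MgCl2 buffer. Reaction started with 500 μM ATP and 400 μM L-methionine (substrate-mix concentrations), run 60 min at 25 °C. Phosphate measured colorimetrically against a phosphate standard curve to give IC50.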

| IC50 [1] [nM] | IC50 [2] [nM] | IC50 [3] [nM] | IC50 [4] [nM] | SMILES |
| --- | --- | --- | --- | --- |
| < 100 | < 100 | > 1000 | < 100 | Cn1nc2ccc(-n3nc4ccn(CC5CC5)c4c(-c4ccc(C5CC5)nc4)c3=O)cc2c1C(F)(F)F [Example 241, 5-(cyclopropylmethyl)-4-(6-cyclopropylpyridin-3-yl)-2-(2-methyl-3-(trifluoromethyl)-2H-indazol-5-yl)-2,5-dihydro-3H-pyrrolo[3,2-c]pyridazin-3-one] |
| < 100 | < 100 | > 1000 | < 100 | Cn1cc2cc(-n3nc4c(F)cn(CC5CC5)c4c(-c4ccc(C5CC5)nc4)c3=O)ccc2n1 [Example 235, 5-(cyclopropylmethyl)-4-(6-cyclopropylpyridin-3-yl)-7-fluoro-2-(2-methyl-2H-indazol-5-yl)-2,5-dihydro-3H-pyrrolo[3,2-c]pyridazin-3-one] |
| < 100 | < 100 | > 1000 | < 100 | Cn1cc2cc(-n3nc4ncn(CC5CC5)c4c(-c4ccc(C5CC5)nc4)c3=O)ccc2n1 [Example 190, 5-(cyclopropylmethyl)-4-(6-cyclopropylpyridin-3-yl)-2-(2-methyl-2H-indazol-5-yl)-2,5-dihydro-3H-imidazo[4,5-c]pyridazin-3-one] |
| < 100 | < 100 | > 1000 | < 100 | Cn1cc2cc(-n3nc4c(I)cn(CC5CC5)c4c(-c4ccc(C5CC5)nc4)c3=O)ccc2n1 [Example 117, 5-(cyclopropylmethyl)-4-(6-cyclopropylpyridin-3-yl)-7-iodo-2-(2-methyl-2H-indazol-5-yl)-2,5-dihydro-3H-pyrrolo[3,2-c]pyridazin-3-one] |
| < 100 | < 100 | > 1000 | < 100 | Cn1cc2cc(-n3nc4ccn(CC5CC5)c4c(-c4ccc(C5CC5)cc4)c3=O)ccc2n1 [Example 150, 5-(cyclopropylmethyl)-4-(4-cyclopropylphenyl)-2-(2-methyl-2H-indazol-5-yl)-2,5-dihydro-3H-pyrrolo[3,2-c]pyridazin-3-one] |
| < 100 | < 100 | > 1000 | < 100 | Cn1cc2cc(-n3nc4ccn(CC5CC5)c4c(-c4ccc(C5CC5)nc4)c3=O)ccc2n1 [Example 106, 5-(cyclopropylmethyl)-4-(6-cyclopropylpyridin-3-yl)-2-(2-methyl-2H-indazol-5-yl)-2,5-dihydro-3H-pyrrolo[3,2-c]pyridazin-3-one] |
| 100 to 1000 | < 100 | > 1000 | < 100 | [2H]C([2H])([2H])Oc1ccc(-n2nc3c(C#N)cn(CC4CC4)c3c(-c3ccc(C)nc3)c2=O)cc1 [Example 131, 5-(cyclopropylmethyl)-2-(4-(methoxy-d3)phenyl)-4-(6-methylpyridin-3-yl)-3-oxo-3,5-dihydro-2H-pyrrolo[3,2-c]pyridazine-7-carbonitrile] |
| < 100 | < 100 | > 1000 | < 100 | [2H]C([2H])([2H])Oc1ccc(-n2nc3ccn(CC4CC4)c3c(-c3ccc(C4CC4)nc3)c2=O)cc1 [Example 122, 5-(cyclopropylmethyl)-4-(6-cyclopropylpyridin-3-yl)-2-(4-(methoxy-d3)phenyl)-2,5-dihydro-3H-pyrrolo[3,2-c]pyridazin-3-one] |
| < 100 | < 100 | < 100 | < 100 | Cc1cn(CC2CC2)c2c(-c3ccc(C4CC4)nc3)c(=O)n(-c3ccc4nn(C)cc4c3)nc12 [Example 234, 5-(cyclopropylmethyl)-4-(6-cyclopropylpyridin-3-yl)-7-methyl-2-(2-methyl-2H-indazol-5-yl)-2,5-dihydro-3H-pyrrolo[3,2-c]pyridazin-3-one] |
| > 1000 | 100 to 1000 | > 1000 | < 100 | Nc1ccc(-n2nc3ccn(CC4CC4)c3c(-c3ccc(OC(F)F)cc3)c2=O)cc1 [Example 228, 2-(4-aminophenyl)-5-(cyclopropylmethyl)-4-(4-(difluoromethoxy)phenyl)-2,5-dihydro-3H-pyrrolo[3,2-c]pyridazin-3-one] |

More lines, now with the values behind:

| SMILES | IC50 [1] [nM] | IC50 [2] [nM] | IC50 [3] [nM] | IC50 [4] [nM] |
| --- | --- | --- | --- | --- |
| Cc1ccc(-c2c(=O)n(-c3ccc4nn(C)cc4c3)nc3c2n(CC2CC2)c(=O)n3C)cn1 [Example 202, 5-(cyclopropylmethyl)-7-methyl-2-(2-methyl-2H-indazol-5-yl)-4-(6-methylpyridin-3-yl)-2,7-dihydro-3H-imidazo[4,5-c]pyridazine-3,6(5H)-dione] | 100 to 1000 | 100 to 1000 | 100 to 1000 | < 100 |
| Cn1cc2cc(-n3nc4[nH]c(=O)n(CC5CC5)c4c(-c4ccc(Cl)cc4)c3=O)ccc2n1 [Example 205, 4-(4-chlorophenyl)-5-(cyclopropylmethyl)-2-(2-methyl-2H-indazol-5-yl)-2,7-dihydro-3H-imidazo[4,5-c]pyridazine-3,6(5H)-dione] | 100 to 1000 | < 100 | > 1000 | < 100 |
| Cn1cc2cc(-n3nc4c(C#N)cn(CC5CC5)c4c(-c4ccc(C5(O)CC5)nc4)c3=O)ccc2n1 [Example 256, 5-(cyclopropylmethyl)-4-(6-(1-hydroxycyclopropyl)pyridin-3-yl)-2-(2-methyl-2H-indazol-5-yl)-3-oxo-3,5-dihydro-2H-pyrrolo[3,2-c]pyridazine-7-carbonitrile] | 100 to 1000 | 100 to 1000 | > 1000 | < 100 |
| Cn1cc2cc(-n3nc4ncn(CC5CC5)c4c(-c4ccc(C5CC5)cc4)c3=O)ccc2n1 [Example 192, 5-(cyclopropylmethyl)-4-(4-cyclopropylphenyl)-2-(2-methyl-2H-indazol-5-yl)-2,5-dihydro-3H-imidazo[4,5-c]pyridazin-3-one] | < 100 | < 100 | 100 to 1000 | < 100 |
| Cn1cc2cc(-n3nc4c(C#N)cn(C[C@H]5CC5(F)F)c4c(-c4ccc(C5CC5)nc4)c3=O)ccc2n1 [Example 269, (R)-4-(6-cyclopropylpyridin-3-yl)-5-((2,2-difluorocyclopropyl)methyl)-2-(2-methyl-2H-indazol-5-yl)-3-oxo-3,5-dihydro-2H-pyrrolo[3,2-c]pyridazine-7-carbonitrile] | > 1000 | < 100 | > 1000 | < 100 |
| CCCn1cc(C#N)c2nn(-c3ccc4nn(C)cc4c3)c(=O)c(-c3ccc(C4CC4)nc3)c21 [Example 127, 4-(6-cyclopropylpyridin-3-yl)-2-(2-methyl-2H-indazol-5-yl)-3-oxo-5-propyl-3,5-dihydro-2H-pyrrolo[3,2-c]pyridazine-7-carbonitrile] | 100 to 1000 | < 100 | > 1000 | < 100 |
| [2H]C([2H])([2H])Oc1ccc(-c2c(=O)n(-c3ccc4nn(C)cc4c3)nc3[nH]c(=O)n(CC4CC4)c23)cc1 [Example 206, 5-(cyclopropylmethyl)-4-(4-(methoxy-d3)phenyl)-2-(2-methyl-2H-indazol-5-yl)-2,7-dihydro-3H-imidazo[4,5-c]pyridazine-3,6(5H)-dione] | 100 to 1000 | < 100 | > 1000 | < 100 |
| Cn1cc2cc(-n3nc4c(C#N)cn(CC5CC5)c4c(-c4ccc(C#N)cc4)c3=O)ccc2n1 [Example 149, 4-(4-cyanophenyl)-5-(cyclopropylmethyl)-2-(2-methyl-2H-indazol-5-yl)-3-oxo-3,5-dihydro-2H-pyrrolo[3,2-c]pyridazine-7-carbonitrile] | 100 to 1000 | 100 to 1000 | > 1000 | < 100 |
| Cc1ccc(-c2c(=O)n(-c3ccc4nn(C)cc4c3)nc3c(CO)cn(CC4CC4)c23)cn1 [Example 255, 5-(cyclopropylmethyl)-7-(hydroxymethyl)-2-(2-methyl-2H-indazol-5-yl)-4-(6-methylpyridin-3-yl)-2,5-dihydro-3H-pyrrolo[3,2-c]pyridazin-3-one] | < 100 | < 100 | 100 to 1000 | < 100 |
| CC(C)Cn1cc(C#N)c2nn(-c3ccc4nn(C)cc4c3)c(=O)c(-c3ccc(OC(F)F)cc3)c21 [Example 116, 4-(4-(difluoromethoxy)phenyl)-5-isobutyl-2-(2-methyl-2H-indazol-5-yl)-3-oxo-3,5-dihydro-2H-pyrrolo[3,2-c]pyridazine-7-carbonitrile] | 100 to 1000 | < 100 | > 1000 | < 100 |
| CC(C)c1cn(CC2CC2)c2c(-c3ccc(C4CC4)nc3)c(=O)n(-c3ccc4nn(C)cc4c3)nc12 [Example 248, 5-(cyclopropylmethyl)-4-(6-cyclopropylpyridin-3-yl)-7-isopropyl-2-(2-methyl-2H-indazol-5-yl)-2,5-dihydro-3H-pyrrolo[3,2-c]pyridazin-3-one] | < 100 | < 100 | > 1000 | < 100 |
